ChEMBL document CHEMBL1138164, “Synthesis and structure-activity relationships of novel pyrrolocarbazole lactam analogs as potent and cell-permeable inhibitors of poly(ADP-ribose)polymerase-1 (PARP-1)” (Bioorg Med Chem Lett, 2006)
Values after ≈ are worked out from the molar mass of the structure shown.

Legend:
PC-12 [1] = assay: Potency in PC12 cells assessed by recovery of NAD+ at 1 uM; type: functional, Rattus norvegicus
PC-12 [2] = assay: Efficacy in PC12 cells assessed by recovery of NAD+ at 30 uM; type: functional, Rattus norvegicus
PC-12 [3] = assay: Potency in PC12 cells assessed by recovery of NAD+ at 10 uM; type: functional, Rattus norvegicus
[4] = Aqueous solubility of compound; type: physicochemical; settings: water (aqueous)

Compound | Activity (PC-12 [1]) [%] | Efficacy (PC-12 [2]) [%] | Activity (PC-12 [3]) [%] | solubility [4] [µg/mL]
CN(Cc1ccccn1)C(=O)c1ccc2[nH]c3c4c(c5c(c3c2c1)CNC5=O)CCC4 | 11 | 44 |  | 
O=C(NCCn1ccnn1)c1ccc2[nH]c3c4c(c5c(c3c2c1)CNC5=O)CCC4 | 12 | 28 |  | 
CN(C)CCNC(=O)c1ccc2[nH]c3c4c(c5c(c3c2c1)CNC5=O)CCC4 | 6 | 36 |  | 
O=C1NCc2c1c1c(c3[nH]c4ccc(Br)cc4c23)CCC1 | 28 |  | 47 | 
NCCCCC(N)C(=O)NCc1ccc2[nH]c3c4c(c5c(c3c2c1)CNC5=O)CCC4 (stereo not given) | 2 | 48 |  | 
O=C1NCc2c1c1c(c3[nH]c4ccc(C(=O)N5CCOCC5)cc4c23)CCC1 | 18 | 74 |  | 
NCc1ccc2[nH]c3c4c(c5c(c3c2c1)CNC5=O)CCC4 | 39 | 102 |  | 100 (≈ 343 µM)
O=C1NCc2c1c1c(c3[nH]c4ccccc4c23)CCC1 | 48 |  | 68 | < 1
N#Cc1ccc2[nH]c3c4c(c5c(c3c2c1)CNC5=O)CCC4 | 26 | 122 | 74 | 
O=C(O)c1ccc2[nH]c3c4c(c5c(c3c2c1)CNC5=O)CCC4 | 24 | 65 |  | 
CN(Cc1ccncc1)C(=O)c1ccc2[nH]c3c4c(c5c(c3c2c1)CNC5=O)CCC4 | 23 | 101 |  | 
Cc1ccc2[nH]c3c4c(c5c(c3c2c1)CNC5=O)CCC4 | 17 | 50 |  | 
O=C(NCCN1CCOCC1)c1ccc2[nH]c3c4c(c5c(c3c2c1)CNC5=O)CCC4 | 7 | 27 |  | 
COC(=O)c1ccc2[nH]c3c4c(c5c(c3c2c1)CNC5=O)CCC4 | 38 | 134 |  | 
CN(CCc1c[nH]cn1)C(=O)c1ccc2[nH]c3c4c(c5c(c3c2c1)CNC5=O)CCC4 | 5 | 39 |  | 
O=C1NCc2c1c1c(c3[nH]c4ccc(Cl)cc4c23)CCC1 | 26 | 133 |  | 
